Measurements as given in patent US5373009A, “Dibenzofuranyl esters of N-heterocyclic carboxylic acids” (priority 1994, dated 1994).

Key:
[1] = target: T1, cholesterol ester hydrolase (CEH) (Bos taurus, UniProt P30122); test: In vitro inhibition of cholesteryl ester formation by cholesterol esterase (CEH); format: biochemical; conditions: 37° C.; cholesterol and oleic acid; cholesterol esterase from bovine pancreas
T1 construct: purchased Sigma Company, St. Louis, Mo., U.S.A. C-1892; host or cells: bovine pancreas
Protocol: The ability of the compounds of this invention to inhibit the formation of cholesteryl esters and thereby interfere with and prevent assimilation of cholesterol into the lymphatic system and ultimately the blood stream was established by incubating the compounds at 37° C. with a mixture of cholesterol and oleic acid in the presence of buffered cholesterol esterase [(EC 3.1.1.13) Sigma Company, St. Louis, Mo., U.S.A., No. C-1892, from bovine pancreas] and measuring the amount of ester formed, according to the procedure of Field, J. of Lipid Research, 25, 389 (1984).

[2] = test system: absorption of 14C-cholesterol; test: In vivo cholesterol absorption in normal rats (serum radioactivity after oral [4-14C] cholesterol); conditions: serum radioactivity at 6 hr, vs control
Protocol: The in vivo cholesterol absorption studies were conducted in normal rats by oral administration of the compound being tested in propylene glycol and olive oil followed by oral administration of [4-^14 C] cholesterol in propylene glycol and olive oil, otherwise following the procedure of Cayen et al., J. Lipid Res. 20, 162 (1979). The serum radioactivity was measured at six hours after dosing. The results of this study are reported in Table I as percent decrease compared to control.

CEH = conditions: prior art statement; cited from earlier work

T1 sequence (P30122 19-597): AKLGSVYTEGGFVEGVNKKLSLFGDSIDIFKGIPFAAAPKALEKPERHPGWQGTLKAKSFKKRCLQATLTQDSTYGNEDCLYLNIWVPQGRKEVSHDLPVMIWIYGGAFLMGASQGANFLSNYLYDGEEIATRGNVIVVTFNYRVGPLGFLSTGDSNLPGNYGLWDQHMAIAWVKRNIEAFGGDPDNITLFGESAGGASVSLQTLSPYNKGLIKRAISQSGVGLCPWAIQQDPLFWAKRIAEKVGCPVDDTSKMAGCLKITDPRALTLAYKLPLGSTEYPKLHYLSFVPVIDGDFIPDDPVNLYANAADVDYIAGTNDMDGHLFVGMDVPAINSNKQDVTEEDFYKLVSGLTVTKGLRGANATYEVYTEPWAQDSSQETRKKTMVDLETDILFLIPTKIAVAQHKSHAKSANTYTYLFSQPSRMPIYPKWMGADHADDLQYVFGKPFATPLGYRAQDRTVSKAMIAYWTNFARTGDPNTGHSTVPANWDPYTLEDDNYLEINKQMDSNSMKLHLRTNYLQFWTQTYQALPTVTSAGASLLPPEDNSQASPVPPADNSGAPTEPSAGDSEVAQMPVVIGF

Question: With O=C(Oc1ccc2oc3ccccc3c2c1)N1CCSCC1 [Example 2, 4-Thiomornholinecarboxylic acid 2-dibenzofuranyl ester] as the compound, how does the IC50 [1] read?
Answer: 0.51 µM

Question: And the “Effect on Absorption of ^14 C-chol-6 hr-normal rat, % Decrease” value (from here on “Effect on Absorption … % Decrease”) ([2]; 10 mg/kg)?
Answer: 16%

Question: For O=C(Oc1ccc2oc3ccccc3c2c1)N1CCC2(CCCC2)CC1 [Example 4, 8-Azaspiro[4,5]decane-8-carboxylic acid 2-dibenzofuranyl ester], which IC50 [1] is on record?
Answer: 15 µM

Question: And the “Effect on Absorption … % Decrease” value ([2]; 3 mg/kg)?
Answer: 55%

Question: For CNC(=O)OC1CCN(C(=O)Oc2ccc(Oc3ccccc3)cc2)CC1 [4-[[methylamino)carbonyl]oxy]-1-piperidinecarboxylic acid 4-phenoxyphenyl ester], which “CEH inhibitor (in words)” value (CEH) is on record?
Answer: CEH inhibitor

Question: For CC1(C)CCN(C(=O)Oc2ccc3oc4ccccc4c3c2)CC1 [Example 3, 4,4-Dimethyl-1-piperidinecarboxylic acid 2-dibenzofuranyl ester], which IC50 [1] is on record?
Answer: 6.5 µM

Question: And the “Effect on Absorption … % Decrease” value ([2]; 3 mg/kg)?
Answer: 44%
